Test results from patent US12077503B2, “Substituted cyclic amides and their use as herbicides” (FMC CORPORATION, priority 2015, dated 2024).

Key:
Assay in all cases: Test C preemergence
Assay type in all cases: in vivo
Details in all cases: scale 0 to 100, 0 no effect, 100 complete control
[1] = test system: pigweed (Amaranthus retroflexus)
Outline: (§1)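 Herbicidal effect, applied preemergence to sown seeds or postemergence to 1- to 4-leaf plants, was scored visually 13 to 15 d after application, 0 to 100 versus controls.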

[2] = test system: wheat (winter wheat, Triticum aestivum)
Outline: as §1

[3] = test system: Galium (catchweed bedstraw, Galium aparine)
Outline: as §1

[4] = test system: lambsquarters (Chenopodium album)
Outline: as §1

[5] = test system: nutsedge, yellow (yellow nutsedge, Cyperus esculentus)
Outline: as §1

[6] = test system: velvetleaf (Abutilon theophrasti)
Outline: as §1

[7] = test system: johnsongrass (Sorghum halepense)
Outline: as §1

[8] = test system: blackgrass (Alopecurus myosuroides)
Outline: as §1

[9] = test system: morningglory (Ipomoea coccinea)
Outline: as §1

[10] = test system: ryegrass, Italian (Italian ryegrass, Lolium multiflorum)
Outline: as §1

[11] = test system: oilseed rape (Brassica napus)
Outline: as §1

[12] = test system: barnyardgrass (Echinochloa crus-galli)
Outline: as §1

[13] = test system: foxtail, giant (giant foxtail, Setaria faberii)
Outline: as §1

corn (Zea mays) = test system: corn (Zea mays)
Outline: as §1

soybean (Glycine max) = test system: soybean (Glycine max)
Outline: as §1

[14] = test system: ragweed (common ragweed, Ambrosia elatior)
Outline: as §1

[15] = test system: crabgrass, large (large crabgrass, Digitaria sanguinalis)
Outline: as §1

O=C1NCC(c2cccc(OC(F)F)c2)C1C(=O)Nc1ccc(F)cc1F (stereo not shown) [Compound 421]
Plant response rating, Pigweed ([1]; 31 g ai/ha): 0 | Plant response rating, Pigweed ([1]; 62 g ai/ha): 0 | Plant response rating, Pigweed ([1]; 125 g ai/ha): 35 | Plant response rating, Pigweed ([1]; 250 g ai/ha): 60 | Plant response rating, Wheat ([2]; 62 g ai/ha): 0 | Plant response rating, Wheat ([2]; 125 g ai/ha): 25 | Plant response rating, Wheat ([2]; 250 g ai/ha): 40 | Plant response rating, Galium ([3]; 31 g ai/ha): 0 | Plant response rating, Galium ([3]; 62 g ai/ha): 0 | Plant response rating, Galium ([3]; 125 g ai/ha): 55 | Plant response rating, Galium ([3]; 250 g ai/ha): 45 | Plant response rating, Lambsquarters ([4]; 31 g ai/ha): 10 | Plant response rating, Lambsquarters ([4]; 62 g ai/ha): 35 | Plant response rating, Lambsquarters ([4]; 125 g ai/ha): 60 | Plant response rating, Lambsquarters ([4]; 250 g ai/ha): 70 | Plant response rating, Nutsedge, Yellow ([5]; 31 g ai/ha): 0 | Plant response rating, Nutsedge, Yellow ([5]; 62 g ai/ha): 0 | Plant response rating, Nutsedge, Yellow ([5]; 125 g ai/ha): 0 | Plant response rating, Nutsedge, Yellow ([5]; 250 g ai/ha): 0 | Plant response rating, Velvetleaf ([6]; 62 g ai/ha): 20 | Plant response rating, Velvetleaf ([6]; 125 g ai/ha): 20 | Plant response rating, Velvetleaf ([6]; 250 g ai/ha): 40 | Plant response rating, Johnsongrass ([7]; 31 g ai/ha): 0 | Plant response rating, Johnsongrass ([7]; 62 g ai/ha): 0 | Plant response rating, Johnsongrass ([7]; 125 g ai/ha): 0 | Plant response rating, Johnsongrass ([7]; 250 g ai/ha): 0 | Plant response rating, Blackgrass ([8]; 31 g ai/ha): 40 | Plant response rating, Blackgrass ([8]; 62 g ai/ha): 45 | Plant response rating, Blackgrass ([8]; 125 g ai/ha): 70 | Plant response rating, Blackgrass ([8]; 250 g ai/ha): 70 | Plant response rating, Morningglory ([9]; 31 g ai/ha): 0 | Plant response rating, Morningglory ([9]; 62 g ai/ha): 0 | Plant response rating, Morningglory ([9]; 125 g ai/ha): 15 | Plant response rating, Morningglory ([9]; 250 g ai/ha): 20 | Plant response rating, Ryegrass, Italian ([10]; 62 g ai/ha): 40 | Plant response rating, Ryegrass, Italian ([10]; 125 g ai/ha): 35 | Plant response rating, Ryegrass, Italian ([10]; 250 g ai/ha): 65 | Plant response rating, Oilseed Rape ([11]; 31 g ai/ha): 10 | Plant response rating, Oilseed Rape ([11]; 62 g ai/ha): 25 | Plant response rating, Oilseed Rape ([11]; 125 g ai/ha): 30 | Plant response rating, Oilseed Rape ([11]; 250 g ai/ha): 35 | Plant response rating, Barnyardgrass ([12]; 31 g ai/ha): 60 | Plant response rating, Barnyardgrass ([12]; 62 g ai/ha): 80 | Plant response rating, Barnyardgrass ([12]; 125 g ai/ha): 90 | Plant response rating, Barnyardgrass ([12]; 250 g ai/ha): 95 | Plant response rating, Foxtail, Giant ([13]; 31 g ai/ha): 80 | Plant response rating, Foxtail, Giant ([13]; 62 g ai/ha): 85 | Plant response rating, Foxtail, Giant ([13]; 125 g ai/ha): 85 | Plant response rating, Foxtail, Giant ([13]; 250 g ai/ha): 90 | Plant response rating, Corn (corn (Zea mays); 31 g ai/ha): 0 | Plant response rating, Corn (corn (Zea mays); 62 g ai/ha): 0 | Plant response rating, Corn (corn (Zea mays); 125 g ai/ha): 60 | Plant response rating, Corn (corn (Zea mays); 250 g ai/ha): 75 | Plant response rating, Soybean (soybean (Glycine max); 62 g ai/ha): 0 | Plant response rating, Soybean (soybean (Glycine max); 125 g ai/ha): 0 | Plant response rating, Soybean (soybean (Glycine max); 250 g ai/ha): 10 | Plant response rating, Ragweed ([14]; 31 g ai/ha): 0 | Plant response rating, Ragweed ([14]; 62 g ai/ha): 30 | Plant response rating, Ragweed ([14]; 125 g ai/ha): 40 | Plant response rating, Ragweed ([14]; 250 g ai/ha): 60 | Plant response rating, Crabgrass, Large ([15]; 31 g ai/ha): 90 | Plant response rating, Crabgrass, Large ([15]; 62 g ai/ha): 95 | Plant response rating, Crabgrass, Large ([15]; 125 g ai/ha): 90 | Plant response rating, Crabgrass, Large ([15]; 250 g ai/ha): 95
